Assay results as given in US20140057953A1, “BIARYL DERIVATIVES AS SELECTIVE 17BETA-HYDROXYSTEROID DEHYDROGENASE TYPE 2 INHIBITORS” (priority 2011, published 2014).
pIC50: −log10 of the molar value.

Experiments:
[1] = molecular target: ERβ (Homo sapiens, UniProt Q92731); assay: ER affinity assay (ERβ), [3H]-E2 displacement; conditions: Relative Binding Affinity, E2 = 100%; recombinant human protein
Experimental: (§1) The binding affinity of selected compounds to the ERα and ERβ was determined according to Zimmermann et al. (Zimmermann, J. et al., 3. Steroid Biochem. Mol. Biol., 94:57-66 (2005)) using recombinant human proteins. Briefly, 0.25 μM of ERα or ERβ, respectively, were incubated with [^3H]-E2 (10 nM) and test compound for 1 h at room temperature. The potential inhibitors were dissolved in DMSO (5% final concentration). Evaluation of non-specific-binding was performed with diethylstilbestrol (10 μM). After incubation, ligand-receptor complexes were selectively bound to hydroxyapatite (5 g/60 ml TE-buffer). The formed complex was separated, washed and resuspended in ethanol. For radiodetection, scintillator cocktail (Quickszint 212, Zinsser Analytic, Frankfurt) was added and the samples were measured in a liquid scintillation counter (Rack Beta Primo 1209, Wallac, Turku). […] The compound concentration to displace 50% of the receptor bound [^3H]-E2 were determined. Unlabelled E2 was used as a reference. For determination of the relative binding affinity (RBA) the ratio was calculated according to the following equation: […]
(§2) After the assay was established and validated a modification was made to increase throughput. […] Results were reported as RBA ranges.

[2] = molecular target: T1, ERα (Homo sapiens, UniProt P03372); assay: ER affinity assay (ERα), [3H]-E2 displacement; conditions: Relative Binding Affinity, E2 = 100%; recombinant human protein
T1 sequence (P03372 1-595): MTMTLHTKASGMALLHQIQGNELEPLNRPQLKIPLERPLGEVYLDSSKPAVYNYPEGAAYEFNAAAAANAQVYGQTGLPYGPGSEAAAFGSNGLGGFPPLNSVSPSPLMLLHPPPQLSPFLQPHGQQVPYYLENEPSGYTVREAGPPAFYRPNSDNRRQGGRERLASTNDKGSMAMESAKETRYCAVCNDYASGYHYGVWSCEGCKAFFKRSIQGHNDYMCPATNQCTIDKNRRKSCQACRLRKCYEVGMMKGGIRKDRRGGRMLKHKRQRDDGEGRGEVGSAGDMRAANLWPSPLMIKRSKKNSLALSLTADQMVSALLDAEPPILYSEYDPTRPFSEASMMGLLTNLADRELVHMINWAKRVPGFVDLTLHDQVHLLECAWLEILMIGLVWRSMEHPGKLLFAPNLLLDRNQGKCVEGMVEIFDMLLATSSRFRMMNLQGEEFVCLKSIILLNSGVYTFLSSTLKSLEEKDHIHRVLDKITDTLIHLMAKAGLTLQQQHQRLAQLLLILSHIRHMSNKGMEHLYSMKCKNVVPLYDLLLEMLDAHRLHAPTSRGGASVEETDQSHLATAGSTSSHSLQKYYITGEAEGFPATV
Experimental: as §1, §2

[3] = molecular target: T2, 17β-HSD2 (Homo sapiens, UniProt P37059); assay: Inhibition of 17β-HSD2 in cell-free assay; assay type: biochemical; set-up: 17β-HSD2 was obtained directly from the microsomal fraction; from tissue; host or cells: human placenta, microsomal fraction; conditions: human placenta, microsomal fraction, substrate E2 500 nM, cofactor NAD+ 1500 μM
T2 sequence (P37059 1-387): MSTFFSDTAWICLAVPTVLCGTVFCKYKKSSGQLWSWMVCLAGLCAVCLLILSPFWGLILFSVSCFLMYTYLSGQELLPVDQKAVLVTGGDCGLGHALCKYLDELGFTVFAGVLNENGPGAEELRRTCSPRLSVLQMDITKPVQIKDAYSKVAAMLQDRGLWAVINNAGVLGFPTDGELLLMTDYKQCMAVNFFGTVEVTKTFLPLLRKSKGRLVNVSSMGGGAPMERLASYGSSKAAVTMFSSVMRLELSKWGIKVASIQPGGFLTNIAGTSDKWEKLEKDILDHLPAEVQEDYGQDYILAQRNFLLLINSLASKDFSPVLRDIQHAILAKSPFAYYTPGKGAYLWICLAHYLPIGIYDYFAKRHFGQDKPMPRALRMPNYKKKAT
Experimental: (§3) Fresh human placenta was homogenized. Cytosolic and microsomal fractions were separated by centrifugation at 1000 g, 10000 g and 150000 g. 17β-HSD2 was obtained directly from the microsomal fraction. For the partial purification of 17β-HSD1, the cytosolic fraction was precipitated with ammonium sulfate. Aliquots containing 17β-HSD1 or 17β-HSD2 were stored frozen.
Inhibitor stock solutions were prepared in DMSO. Final concentration of DMSO was adjusted to 1% in all samples. The enzymatic reaction was started by addition of a mixture of unlabelled- and [^3H]-E2 (final concentration: 500 nM, 0.11 μCi). After 20 min at 37° C., the incubation was stopped with HgCl2 and the mixture was extracted with ether. After evaporation, the steroids were dissolved in acetonitrile. E1 and E2 were separated using acetonitrile/water (45:55) as mobile phase in a C18 RP chromatography column (Nucleodur C18, 3 μm, Macherey-Nagel, Duren) connected to a HPLC-system (Agilent 1100 Series, Agilent Technologies, Waldbronn). Detection and quantification of the steroids were performed using a radioflow detector (Berthold Technologies, Bad Wildbad). The conversion rate was calculated according to the following equation: […]

[4] = molecular target: T3, 17β-HSD1 (Homo sapiens, UniProt P14061); assay: Inhibition of 17β-HSD1 in cell-free assay; assay type: biochemical; conditions: human placenta, cytosolic fraction, substrate E1 500 nM, cofactor NADH 500 μM
T3 construct: For the partial purification of 17β-HSD1, the cytosolic fraction was precipitated with ammonium sulfate; from tissue; host or cells: human placenta, cytosolic fraction
T3 sequence (P14061 1-328): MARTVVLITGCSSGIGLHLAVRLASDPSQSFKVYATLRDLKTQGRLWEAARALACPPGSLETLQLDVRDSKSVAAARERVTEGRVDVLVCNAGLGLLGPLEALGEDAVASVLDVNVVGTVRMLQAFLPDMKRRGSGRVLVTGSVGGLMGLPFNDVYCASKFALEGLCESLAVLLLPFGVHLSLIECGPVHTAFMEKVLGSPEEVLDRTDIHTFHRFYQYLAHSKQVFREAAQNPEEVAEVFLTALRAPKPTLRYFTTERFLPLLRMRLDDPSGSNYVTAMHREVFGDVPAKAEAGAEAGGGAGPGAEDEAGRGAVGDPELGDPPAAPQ
Experimental: as §3
The 17β-HSD1 inhibition assay was performed similarly to the 17β-HSD2 test. The cytosolic fraction was incubated with NADH [500 μM], test compound and a mixture of unlabelled- and [^3H]-E1 (final concentration: 500 nM, 0.15 μCi) for 10 min at 37° C. Further treatment of the samples and HPLC separation was carried out as mentioned above for 17β-HSD2.

Chain of ERβ (Q92731 whole entry): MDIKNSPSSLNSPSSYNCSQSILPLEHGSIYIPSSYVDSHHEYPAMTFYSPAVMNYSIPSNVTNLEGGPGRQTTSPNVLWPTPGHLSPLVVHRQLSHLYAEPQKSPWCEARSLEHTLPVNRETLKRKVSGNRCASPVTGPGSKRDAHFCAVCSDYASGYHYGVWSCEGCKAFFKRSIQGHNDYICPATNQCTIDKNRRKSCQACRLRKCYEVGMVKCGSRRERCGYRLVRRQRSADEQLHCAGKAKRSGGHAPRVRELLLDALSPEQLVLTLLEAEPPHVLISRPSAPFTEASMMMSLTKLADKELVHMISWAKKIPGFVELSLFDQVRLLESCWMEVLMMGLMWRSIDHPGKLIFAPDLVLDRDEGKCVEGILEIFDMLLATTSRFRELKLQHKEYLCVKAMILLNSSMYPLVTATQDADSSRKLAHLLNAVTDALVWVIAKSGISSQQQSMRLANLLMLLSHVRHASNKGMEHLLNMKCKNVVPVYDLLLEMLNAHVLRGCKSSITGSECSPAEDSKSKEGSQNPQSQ

Structure (SMILES)	ERβ RBA (%) [1] [%]	ERα RBA (%) [2] [%]	further results
CN(Cc1cccc(O)c1)C(=O)c1ccc(-c2ccc(F)cc2)s1 [compound 42, 5-(4-Fluorophenyl)-N-(3-hydroxybenzyl)-N-methylthiophene-2-carboxamide]	<0.1	<0.1	–
COc1cccc(N(C)C(=O)c2ccc(-c3cccc(C)c3F)s2)c1 [compound 66, 5-(2-Fluoro-3-methylphenyl)-N-(3-methoxyphenyl)-N-methylthiophene-2-carboxamide]	<0.1	<0.1	–
COc1ccc(N(C)C(=O)c2ccc(-c3cccc(OC)c3F)s2)cc1 [compound 73, 5-(2-Fluoro-3-methoxyphenyl)-N-(4-methoxyphenyl)-N-methylthiophene-2-carboxamide]	–	–	inhibition at 1 µM ([3]; inhibitor concentration 1 μM): 49%; inhibition at 1 µM ([4]; inhibitor concentration 1 μM): 18%
COc1cccc(-c2ccc(C(=O)N(C)c3cccc(OC)c3)s2)c1 [compound 47, N,5-bis(3-Methoxyphenyl)-N-methylthiophene-2-carboxamide]	<0.1	<0.1	–
CN(Cc1cccc(O)c1)C(=O)c1ccc(-c2ccccc2)s1 [compound 30, N-(3-Hydroxybenzyl)-N-methyl-5-phenylthiophene-2-carboxamide]	<0.1	<0.1	–
COc1cccc(-c2ccc(C(=O)N(C)c3cccc(-c4ccccc4)c3)s2)c1 [compound 76, N-(Biphenyl-3-yl)-5-(3-methoxyphenyl)-N-methylthiophene-2-carboxamide]	–	–	pIC50 [3]: 6.86; pIC50 [4]: 5.96
COc1ccc(-c2ccc(C(=O)N(C)c3cccc(OC)c3)s2)cc1 [compound 55, N-(3-Methoxyphenyl)-5-(4-methoxyphenyl)-N-methylthiophene-2-carboxamide]	<0.1	<0.1	–
COc1cccc(N(C)C(=O)c2ccc(-c3c(F)ccc(OC)c3F)s2)c1 [compound 65, 5-(2,6-Difluoro-3-methoxyphenyl)-N-(3-methoxyphenyl)-N-methylthiophene-2-carboxamide]	<0.1	<0.1	–
COc1cccc(N(C)C(=O)c2ccc(-c3cccc(C)c3)s2)c1 [compound 64, N-(3-methoxyphenyl)-N-methyl-5-m-tolylthiophene-2-carboxamide]	<0.1	<0.1	–
COc1cccc(CN(C)C(=O)c2ccc(-c3ccc(C#N)cc3)s2)c1 [compound 31, 5-(4-Cyanophenyl)-N-(3-methoxybenzyl)-N-methylthiophene-2-carboxamide]	–	–	% inhibition 17β-HSD2 ([3]; inhibitor concentration 1 μM): n.i.^e; % inhibition 17β-HSD1 ([4]; inhibitor concentration 1 μM): n.i.^e
COc1cccc(-c2ccc(C(=O)N(C)Cc3ccccc3)s2)c1 [compound 33, N-Benzyl-5-(3-methoxyphenyl)-N-methylthiophene-2-carboxamide]	<0.1	<0.1	–
COc1cccc(CCN(C)C(=O)c2ccc(-c3cccc(OC)c3)s2)c1 [compound 17, N-(3-Methoxyphenethyl)-5-(3-methoxyphenyl)-N-methylthiophene-2-carboxamide]	–	–	inhibition at 1 µM ([3]; inhibitor concentration 1 μM): 31%; % inhibition 17β-HSD1 ([4]; inhibitor concentration 1 μM): n.i.^e
COc1cccc(-c2ccc(C(=O)N(C)c3cccc(C)c3)s2)c1F [compound 72, 5-(2-Fluoro-3-methoxyphenyl)-N-methyl-N-(m-tolylthiophene)-2-carboxamide]	<0.1	<0.1	–
COc1cccc(-c2ccc(C(=O)N(C)Cc3cccc(O)c3)s2)c1 [compound 45, N-(3-Hydroxybenzyl)-5-(3-methoxyphenyl)-N-methylthiophene-2-carboxamide]	<0.1	<0.1	pIC50 [4]: 4.63
Cc1cccc(-c2ccc(C(=O)N(C)Cc3cccc(O)c3)cc2)c1 [compound 4, N-(3-hydroxybenzyl)-N,3′-dimethylbiphenyl-4-carboxamide]	<0.1	<0.1	–
COc1ccc(-c2ccc(C(=O)N(C)Cc3cccc(OC)c3)s2)cc1 [compound 25, N-(3-Methoxybenzyl)-5-(4-methoxyphenyl)-N-methylthiophene-2-carboxamide]	<0.1	<0.1	–
CN(Cc1cccc(O)c1)C(=O)c1cccc(-c2ccc(O)cc2)c1 [compound 6, 4′-Hydroxy-N-(3-hydroxybenzyl)-N-methylbiphenyl-3-carboxamide]	<0.1	<0.1	–
COc1cccc(-c2ccc(C(=O)N(C)c3ccccc3)s2)c1 [compound 67, 5-(3-Methoxyphenyl)-N-methyl-N-phenylthiophene-2-carboxamide]	<0.1	<0.1	–
COc1cccc(CN(C)C(=O)c2ccc(-c3cccc(OC)c3)cc2)c1 [compound 1, 3′-Methoxy-N-(3-methoxybenzyl)-N-methylbiphenyl-4-carboxamide]	<0.1	<0.1	–
Cc1cccc(-c2ccc(C(=O)N(C)c3ccccc3F)s2)c1 [compound 74, N-(2-fluorophenyl)-N-methyl-5-m-tolylthiophene-2-carboxamide]	<0.1	<0.1	–
COc1cccc(N(C)C(=O)c2ccc(-c3cccc(SC)c3)s2)c1 [compound 63, N-(3-methoxyphenyl)-N-methyl-5-(3-(methylthio)phenyl)thiophene-2-carboxamide]	<0.1	<0.1	–
COc1ccc(-c2ccc(C(=O)N(C)Cc3ccccc3)s2)cc1 [compound 35, N-Benzyl-5-(4-methoxyphenyl)-N-methylthiophene-2-carboxamide]	<0.1	<0.1	–
